From the METLIN SMRT retention time set (Domingo-Almenara et al. 2019)

Test: gradient 5% acetonitrile 3 min, to 50% in 2 min, to 85% in 15 min, held 3 min, 100 µL/min
Settings: column: Zorbax Extend-C18 2.1 x 50 mm; eluents: water / acetonitrile, 0.1% formic acid
Method in brief: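 Data were gathered over 3 months by HPLC coupled to a quadrupole time-of-flight mass spectrometer, operated in positive and negative ionization mode. Mixtures of ~100 pure standards ran on a Zorbax Extend-C18 column (2.1 × 50 mm, 1.8 μm) at 100 μL/min, with water and acetonitrile each containing 0.1% formic acid and dead and dwell volumes of 40 μL and 900 μL. Retention time was read from adduct peaks picked by computer and checked manually.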

Row | RP-LC retention time | Compound
1 | 579 s | Cn1c(SCC(=O)Nc2ncccn2)nnc1-c1ccc2c(c1)OCO2
2 | 865 s | COc1ccc(C(=O)N2CCc3ccc(C(=O)NCc4ccc(C)o4)cc32)cc1
3 | 627 s | CC1CN=C2C=C(N3CCN(S(=O)(=O)Cc4cccc(Cl)c4)CC3)N=CN21 (stereo not given)
4 | 1050 s | Cc1ccc(-c2ccc(=O)n(Cc3noc(C(=O)N4CCC(C)CC4)n3)n2)cc1C
5 | 695 s | Cc1ccc(C)c(C(=O)Nc2cccn3c(C)nnc23)c1
6 | 736 s | COc1cc([C@@H]2c3cc4c(cc3[C@H](O)[C@@H](CO)[C@@H]2C(=O)NC2CCCCC2)OCO4)cc(OC)c1OC
7 | 658 s | Cc1ccc(CNS(=O)(=O)c2cc3n(c2)CCCNC3=O)cc1
8 | 649 s | CCOc1ccc(C(C)NC(=O)c2cc(NC(C)=O)cc3nc(C)ccc23)cc1 (stereo not given)
9 | 842 s | Cc1sc(NC(=O)c2cccs2)nc1-c1ccc2c(c1)NC(=O)CO2
10 | 728 s | Cc1cc(Br)ccc1NC(=O)CCc1c(-c2ccc(F)cc2)nc2ccccn12
11 | 699 s | Cc1[nH]nc(-c2cc(S(=O)(=O)NCCc3ccc(S(N)(=O)=O)cc3)c(C)s2)c1C
12 | 645 s | Cc1ccn2cc(C(=O)NCc3ccc(F)cc3)nc2c1
13 | 759 s | CC1CCN(C(=O)Cc2nnc3cc(-c4nc(C5CC5)no4)ccn23)CC1
14 | 962 s | COc1ccc(-c2noc(CN3C(=O)COc4ccc(Cl)cc43)n2)c(OC)c1
15 | 742 s | CCC(C)Nc1nc2c(c(=O)n(C)c(=O)n2C)n1C (stereo not given)
16 | 589 s | Cc1nc(NC(=O)c2ccc(-n3ccnc3)nn2)sc1C
17 | 757 s | COc1cccc(CC(=O)N2CCCC2c2cc(C)on2)c1 (stereo not given)
18 | 826 s | CCOC(=O)c1nc(Nc2cccc(C)c2C)c2ccccc2n1
19 | 612 s | COCC1(O)CCOC2(CCN(Cc3cccc(Cl)c3)CC2)C1 (stereo not given)
20 | 645 s | Cn1c(=O)c(N2CCC(C(=O)NCCCN3CCCC3=O)CC2)nc2ccccc21
21 | 781 s | Cc1nc2cc(N3CC(C(=O)Nc4ccc(Cl)cc4C)CC3=O)ccc2o1 (stereo not given)
22 | 793 s | Cc1nn(-c2nc(-c3ccc(Cl)cc3)cs2)c(C)c1CC(=O)N1CCCCCC1
23 | 918 s | CC(=O)N1c2ccc(S(=O)(=O)N3CCCCCC3)cc2CC1C(=O)NCCc1ccccc1 (stereo not given)
24 | 871 s | Cc1noc2nc(C)n(CC(=O)Nc3cccc4c3CCCC4)c(=O)c12

Row | RP-LC retention time | Compound
25 | 989 s | COc1ccc(OCc2nnc3sc(-c4ccc(OC)cc4OC)nn23)cc1
26 | 747 s | CCCNC(=O)c1nc2cc(C)c(C)cc2n(C)c1=O
27 | 701 s | O=C(Cc1ccc(NC(=O)CCS(=O)(=O)c2ccccc2)cc1)NCc1cccs1
28 | 828 s | CCn1c(=O)c2c(nc3n2CC(C)CN3C2CCCCC2)n(C)c1=O (stereo not given)
29 | 643 s | CC(=O)N1CCc2cc(N3CC(C(=O)NCC(C)C)CC3=O)ccc21 (stereo not given)
30 | 735 s | CCC(C)NC(=O)Cn1c(=O)n(CC(C)C)c(=O)c2nscc21 (stereo not given)
31 | 824 s | Cc1ccc(NC(=O)CN2C(=O)CCCc3cc(S(=O)(=O)N4CCCC4)ccc32)cc1C
32 | 681 s | Cc1ccc2c(Nc3ccc(C)c(C)c3)c(C(=O)N3CCCC(C)C3)cnc2n1 (stereo not given)
33 | 931 s | COc1ccc(C2CC(=O)N(c3ccc(F)cc3F)C(=O)C2)cc1
34 | 1020 s | COc1ccc(Nc2nc(-c3nnn(-c4cc(Cl)c(OC)cc4OC)c3C)ns2)cc1
35 | 723 s | CN(C)c1cccc(C(=O)NCC2CCN(C(=O)Oc3ccccc3)CC2)c1
36 | 756 s | COc1cccc(-c2[nH]ncc2CNS(=O)(=O)c2cc(OC)ccc2OC)c1
37 | 943 s | Cn1nc(-c2nnc(-c3ccccc3Cl)o2)c2c1CCN(C(=O)c1ccc(C(F)(F)F)cc1)C2
38 | 873 s | CCOC(=O)c1ccc(NC(=O)C2CCCN(c3ncnc4c3nc3n4CCCCC3)C2)cc1 (stereo not given)
39 | 772 s | CN(CC1CCOCC1)C(=O)Nc1ccc(Cl)cc1
40 | 785 s | CCN1CCCn2cc(S(=O)(=O)NCCCc3ccccc3)cc2C1=O
41 | 993 s | Cc1ccc(CC(=O)Nc2cc(-c3cccs3)no2)cc1
42 | 913 s | COC(c1ccccc1)(c1ccccc1)[C@H](Oc1nc(C)cc(C)n1)C(=O)O
43 | 728 s | COc1cccc(CCC(=O)N2C[C@@H]3C[C@H](NC(=O)c4cccs4)[C@H]2C3)c1
44 | 902 s | CCOc1ccc(-c2[nH]ncc2CNS(=O)(=O)c2cccc(C(F)(F)F)c2)cc1
45 | 852 s | CCOc1ccc2c(n1)CCN(C(=O)Nc1ccc(C)cc1C)C2
46 | 1350 s | CCCCOc1ccc(-c2nc(C3CC(=O)N(c4ccc(Cl)cc4)C3)no2)cc1 (stereo not given)
47 | 630 s | CN(CCNC(=O)c1ccc2c(c1)NC(=O)C1CCCCN21)C1CCCCC1 (stereo not given)
48 | 830 s | O=C(NCc1nc(-c2ccc(-c3csc(C4CC4)n3)cc2)no1)c1ccco1

Second part, the compound before the results:

Row | Compound | RP-LC retention time
49 | COc1ccc2[nH]c(=O)c(CCC(=O)NCc3ccc(OC)c(OC)c3)cc2c1 | 648 s
50 | COc1ccc(OC)c(NC(=O)N2CCc3c(c(C(=O)N4CCOCC4)nn3C)C2)c1 | 648 s
51 | Cc1ccc(-c2nnc(-c3cccnc3N3CCC4(CC3)OCCO4)o2)cc1 | 962 s
52 | O=C(Nc1ccc2c(c1)OCCO2)N1CC[C@@H]2COC(=O)N(Cc3ccccc3)[C@@H]2C1 | 724 s
53 | CC(C)n1cnnc1-c1nn(C)c2c1CN(C(=O)CC1CCCC1)CC2 | 732 s
54 | CCC(C)NC(=O)CCn1c(=O)c2ccccc2n2c(=O)n(Cc3ccccc3F)nc12 (stereo not given) | 884 s
55 | CCCN1CCN(C(=O)Cn2nc(C)c3sc(-c4ccccc4)nc3c2=O)CC1 | 623 s
56 | CC(Oc1ccccc1Cl)C(=O)NCCn1nc(-n2cccn2)ccc1=O (stereo not given) | 710 s
57 | Cc1ccc(Sc2nccnc2N2CCCC(C(=O)NCCC(C)C)C2)cc1 (stereo not given) | 1140 s
58 | COc1ccc2c(c1)-c1nc(NC(=O)c3ccc(F)cc3)sc1CC2 | 1140 s
59 | COc1cccc([C@@]2(O)CCCC[C@H]2CN(C)C)c1 | 591 s
60 | O=C([C@H]1C[C@@H](F)CN1S(=O)(=O)c1ccc(F)c(Cl)c1)N1CCOCC1 | 731 s
61 | O=C(c1cncnc1)N1CCC(F)(F)C(COCC2CC2)C1 (stereo not given) | 683 s
62 | COCCN(Cc1ccc(C(C)C)cc1)Cc1cc(=O)n2cc(Cl)ccc2n1 | 628 s
63 | COc1ncccc1CNC(=O)COc1ccccc1 | 677 s
64 | Cc1ccc(NC(=O)Cn2cnc3nc(-c4cccnc4)ncc3c2=O)cc1F | 656 s
65 | O=C(Cn1c(=O)c(CCC(=O)NC2CCCC2)nc2ccccc21)Nc1ccc(F)cc1 | 808 s
66 | CCN1CCN(CCNC(=O)c2nc3ccccn3c2-c2ccc(Cl)cc2)CC1 | 782 s
67 | COc1ccc(OCc2nc(-c3ccc(S(=O)(=O)N4CCOCC4)cc3)no2)cc1 | 1000 s
68 | Cc1cccc(-c2nc(C)c(C(=O)NC3CC3)s2)c1 | 869 s
69 | COC(=O)CCCC(=O)Nc1ccc2[nH]c(=O)oc2c1 | 608 s

Row | Compound | RP-LC retention time
70 | COc1ccc(OC)c(NC(=O)CN2C(=O)C(C)(C)c3cc(C)ccc32)c1 | 915 s
71 | CC1CN=C2C=C(N3CCN(C(=O)Nc4ccc(C(F)(F)F)cc4)CC3)N=CN21 (stereo not given) | 688 s
72 | O=C(NCC(O)c1ccc(C(F)(F)F)cc1)C(=O)Nc1ccc(F)cc1F (stereo not given) | 880 s
73 | Cc1cccc(OCC(=O)N(Cc2ccc(Br)o2)C2CCS(=O)(=O)C2)c1C (stereo not given) | 960 s
74 | CCOc1ccc(-c2[nH]ncc2CNS(=O)(=O)Cc2cc(F)cc(F)c2)cc1 | 845 s
75 | O=C(Cn1nc(C2CC2)cc1C(=O)N1CCCC1)Nc1ccc(F)c(F)c1 | 789 s
76 | CCCN1C(=O)C(CC(=O)N2CCN(C)CC2)Sc2ncccc21 (stereo not given) | 576 s
77 | Cc1ccsc1CN1CCC(Cn2c(C)cnc2C)CC1 | 521 s
78 | O=C(Cc1csc(NC(=O)c2ncccn2)n1)Nc1nc2ccccc2s1 | 670 s
79 | CCOc1ccc(NC(=O)c2oc3ccc(CC)cc3c2C)c2cccnc12 | 837 s
80 | O=C(Nc1ccc(F)cc1F)N1CCN(Cc2nc3cc(Cl)ccc3o2)CC1 | 763 s
81 | COc1ccc(N2CC(c3nnc(NC(=O)c4ccc(Cl)cc4)o3)CC2=O)cc1 (stereo not given) | 835 s
82 | Cc1cccc(NC(=O)C2CCN(S(=O)(=O)c3ccc4c(c3)NC(=O)C(C)O4)CC2)c1C (stereo not given) | 818 s
83 | CC(=O)Nc1ccc(S(=O)(=O)N2CCCCC2c2cccnc2)cc1 (stereo not given) | 593 s
84 | Cc1nc(-c2noc(-c3ccc(F)cc3)n2)cn1CC(=O)Nc1ccc2c(c1)CCC2 | 966 s
85 | CC(C)CN1C(=O)c2cccn2CC1CNC(=O)c1ccco1 (stereo not given) | 672 s
86 | COc1ccccc1CNC(=O)C1(c2ccc(NC(C)=O)cc2)CCC1 | 736 s
87 | COc1ccc(CN2C=C(C(=O)OCc3ccccc3Cl)C(C)=NS2(=O)=O)cc1 | 1170 s
88 | Cc1noc(C2(NC(=O)c3ccc(Br)cc3)CCCCC2)n1 | 924 s
89 | Cn1nccc1C(=O)N1CCC(c2nc(-c3ccc(F)cc3)no2)CC1 | 811 s
90 | Cc1noc(C)c1-c1ccc(S(=O)(=O)Nc2ccc(C(F)(F)F)cc2)cc1 | 1020 s
